From patent US20260217699A1, “BERBERINE TAUROURSODEOXYCHOLATE COMPOSITIONS AND METHODS THEREOF” (SHENZHEN HIGHTIDE BIOPHARMACEUTICAL LTD., priority 2023, published 2026)

Columns and labels:
Type in all cases: in vivo, Sprague-Dawley rats
[1] = test system: 6-OHDA Stereotactic Injection Induced PD Rats; experiment: Balance beam test; details: for Foot Slips Times / Passage Time: Mean ± SEM, N=10; for Foot Slips Times: Model 1.7 ± 0.2; for Passage Time: Model 10.9 ± 1.3
From the text: (§1) The rats were respiratory anesthetized with isoflurane; the head was fixed to ensure that there was no movement and the brain surface was adjusted to be flat; the head was shaved, and a skin incision was made along the sagittal suture to expose the fontanel point; the glass electrode was positioned to the fontanel, and the axes of the coordinate monitor were zeroed to locate the brain areas of the SN and the Str based on the coordinates, in which the SN: AP=−5.0 mm; ML=−1.9 mm; DV=−8.5 mm, and Str: AP=+0.5 mm; ML=−3.0 mm; DV=−6.0 mm. […]; slowly inserted the needle into the localized area of SN and Str, waited for 10 min, and then administered the drug of 6-OHDA at a rate of […] for 10 min, and each animal was given […] of each of SN and Str area, and then the needle was slowly withdrawn after the drug was administered for 10 min, and the PD rat model was established.
The rat was placed on a balance beam. The time was recorded it took for the rat to pass the balance beam as well as the number of foot slips (feet leave the top of the balance beam). The average of the two successful passing times and the number of foot slips were used as the evaluation criteria for the rat's locomotor balance ability. Information regarding beam test can also be found in the literature (Allbutt, et al. 2007 J Neurosci Methods 159(2):195-202; Fine, et al. 2014 Brain Res. 1574:96-104).
(§2) In this study, 16 Sprague Dawley (SD) male rats 180g-220g were used to establish a PD model by stereotactic unilateral injection of 6-OHDA in the substantia nigra (SN) and striatum (Str) brain areas after one week of acclimatization feeding and were randomly divided into 2 groups of 8 rats each. One group was dosed with the test compound BTUDC 500 mg/kg (QD, p.o.) and the other group was the Model group, which was given an equal volume of 0.5% CMC-Na (QD, p.o.) as the test compound group. The animals were administered once a day for 21 consecutive days starting from the second day after modeling to evaluate the tolerability and therapeutic potential of BTUDC in the 6-OHDA PD model.
(§3) Experimental Methods: Seventy 180-220g SD male rats were selected and fed for one week for accumulation, and the PD model was established by stereotactic unilateral injection of 6-OHDA in the Substantia Nigra (SN) and Striatum (Str) regions and were randomly divided into five groups according to their body weights including Madopar group (Madopar, 50 mg/kg), BTUDC-L group (BTUDC, 100 mg/kg), BTUDC-M group (BTUDC, 500 mg/kg), and BTUDC-H group (BTUDC, 1000 mg/kg), with 10 animals in each group. Another 10 SD male rats were taken for sham operation (only 4 μL of 0.9% NS containing 0.02% ascorbic acid was given to the SN and Str brain regions during modeling) as the Sham group. The drug was administered by gavage once daily continuously for 21 days starting on the second day of modeling (first day of dosing, D1). General observation was made during the dosing period. At the end of the administration, the test articles were evaluated for tolerance in this model and in behavioral apomorphine—asymmetric rotation test, beam test, rotarod test and grip strength test, immunofluorescence staining (TH, Ibal), and cerebrospinal fluid inflammatory factor assays to evaluate the pharmacodynamic effects of the test articles. Inflammatory factors tested included interleukin 6 (1L-6), inflammatory factor […], Tumor Necrosis Factor alpha (TNF-α), inflammatory assays were done in a total of 4 groups included Sham, Model, Madopar and BTUDC-H groups.

[2] = test system: 6-OHDA Stereotactic Injection Induced PD Rats; experiment: Rotarod test; details: for Time on the Rod: Mean ± SEM, N=10, Model 63.250 ± 9.871
From the text: as §1
The rotation speed of the rotary rod fatigue meter was set to 20 rpm/min with the test time of 5 min. The animals were placed on the rotating rod in batches for testing, and the time each animal spent on the rod was recorded to evaluate the motor coordination ability of the rats. Information on the rotarod test can also be found in the literature (Bohlen, et al. 2009 J Neurosci Methods 178(1):10-4).
as §2, with “The animals were administered once a day for 21 consecutive days starting from the second day after modeling to evaluate the tolerability and therapeutic potential of BTUDC in the 6-OHDA PD model.” left out
Experimental Methods: Seventy 180-220g SD male rats were selected and fed for one week for accumulation, and the PD model was established by stereotactic unilateral injection of 6-OHDA in the Substantia Nigra (SN) and Striatum (Str) regions and were randomly divided into five groups according to their body weights including Madopar group (Madopar, 50 mg/kg), BTUDC-L group (BTUDC, 100 mg/kg), BTUDC-M group (BTUDC, 500 mg/kg), and BTUDC-H group (BTUDC, 1000 mg/kg), with 10 animals in each group. […] At the end of the administration, the test articles were evaluated for tolerance in this model and in behavioral apomorphine—asymmetric rotation test, beam test, rotarod test and grip strength test, immunofluorescence staining (TH, Ibal), and cerebrospinal fluid inflammatory factor assays to evaluate the pharmacodynamic effects of the test articles. […]

TNF-α = experiment: Elisa test of cerebrospinal fluid, TNF-α; details: rat cerebrospinal fluid; BTUDC-H 1000 mg/kg p.o. Qd 21 days; Mean ± SEM, n=10; Model 271.022 ± 8.145; p<0.05 vs Model
From the text: The cerebrospinal fluid was directly extracted by inserting a needle through the foramen magnum, and the supernatant was collected after centrifugation for ELISA testing. The kit brand was Shanghai Enzyme Link. The product codes of IL-6, IL-1β, and TNF-α were m1064292, m1037361, and m1002859, respectively. Processed the sample according to the instructions of the ELISA detection kit, adjusted the blank well to zero, measured the absorbance (OD value) of each well sequentially at a wavelength of 450 nm, and calculated the sample concentration based on the standard curve and OD value. […]
Dosing volume: 10 mL/kg • 1. […] Histochemical test: After the behavioral test, the cerebrospinal fluid from each animal (N=10) was collected, centrifuged to collect the supernatant, and stored at −80° C. for Elisa test (IL-6, IL-1β, TNF-α), then the animals in each group (N=5) were randomly selected to take the modeling side of the striatum for the detection of neurotransmitters, and the rest of them (N=5) were subjected to cardiac perfusion, which was performed by the process of perfusion, fixation, sedimentation and slicing for immunofluorescence staining and photographed, and the number or area of signals were counted by ImageJ software. • 4. […]

[3] = test system: 6-OHDA Stereotactic Injection Induced PD Rats; experiment: Tolerability / general condition observation in PD rat model
Method: as §2
The body weight and food intake of the rats were collected and recorded every day, and the cage side observation for the animals was carried out.
as §3
Dosing volume: 10 mL/kg • 1. General observation: During the period of drug administration, body weight, food intake test and cage side observation were conducted […]. • 2. Behavioral test: After 21 days of administration, behavioral test was carried out on the following day. • 3. Histochemical test: After the behavioral test, the cerebrospinal fluid from each animal (N=10) was collected, centrifuged to collect the supernatant, and stored at −80° C. for Elisa test (IL-6, IL-1β, TNF-α), then the animals in each group (N=5) were randomly selected to take the modeling side of the striatum for the detection of neurotransmitters, and the rest of them (N=5) were subjected to cardiac perfusion, which was performed by the process of perfusion, fixation, sedimentation and slicing for immunofluorescence staining and photographed, and the number or area of signals were counted by ImageJ software. • 4. Data analysis: After the data were summarized and counted, they were analyzed using SPSS data statistics software (one-way ANOVA, p<0.05 was considered a significant difference), and images were plotted according to the results of SPSS analysis using Graph Pad software. […]

[4] = BTUDC-H 1000 mg/kg p.o. Qd 21 days, p<0.001 vs Model
[5] = BTUDC-M 500 mg/kg p.o. Qd 21 days, p<0.001 vs Model
[6] = up to 1000 mg/kg p.o. Qd 21 days

COc1ccc2cc3[n+](cc2c1OC)CCc1cc2c(cc1-3)OCO2.C[C@H](CCC(=O)NCCS(=O)(=O)[O-])[C@H]1CC[C@H]2[C@@H]3[C@@H](O)C[C@@H]4C[C@H](O)CC[C@]4(C)[C@H]3CC[C@]12C [BTUDC, Berberine tauroursodeoxycholate]
Beam Test Number of feet slips ([1]; 500 mg/kg QD p.o. 21 days, Model 1.313 ± 0.3772, P < 0.001 vs Model): 0.250 ± 0.0945
Beam Test Passing time ([1]; 500 mg/kg QD p.o. 21 days, Model 9.938 ± 1.8088, P < 0.001 vs Model): 3.563 ± 0.6228 s
Foot Slips Times [1, 4]: 0.6 ± 0.2
Passage Time [1, 4]: 4.8 ± 0.4 s
Foot Slips Times ([1]; BTUDC-L 100 mg/kg p.o. Qd 21 days, p<0.05 vs Model): 1.0 ± 0.3
Passage Time ([1]; BTUDC-L 100 mg/kg p.o. Qd 21 days, p<0.01 vs Model): 8.0 ± 0.7 s
Foot Slips Times ([1]; BTUDC-M 500 mg/kg p.o. Qd 21 days, p<0.01 vs Model): 0.8 ± 0.2
Passage Time [1, 5]: 6.4 ± 0.7 s
Rotarod Test Rod time ([2]; 500 mg/kg QD p.o. 21 days, Model 44.063 ± 4.6049, P < 0.001 vs Model): 252.413 ± 14.4032 s
Time on the Rod [2, 4]: 172.625 ± 17.355 s
Time on the Rod ([2]; BTUDC-L 100 mg/kg p.o. Qd 21 days, no significance mark): 103.220 ± 5.806 s
Time on the Rod [2, 5]: 148.070 ± 21.760 s
TNF-α Conc. (TNF-α): 250.424 ± 9.186 pg/mL
tolerability in the PD rat model ([3]; 500 mg/kg QD p.o. 21 days): well tolerated
mortality, moribundity, abnormal animal state ([3]; 500 mg/kg QD p.o. 21 days, vs model group): no Test Compound-related mortality or moribundity nor abnormal animal state
body weight and food intake vs model control group ([3]; 500 mg/kg QD p.o. 21 days, whole study period): no obvious differences
body weight growth or food intake compared with other groups of animals [3, 6]: no obvious abnormalities
tolerability [3, 6]: well tolerated
